Measured values: US9403812B2, “Triazole derivatives as Wnt signaling pathway inhibitors” (OSLO UNIVERSITY HOSPITAL, HF, priority 2010, dated 2016)

Columns and labels:
[1] = Stability in human liver microsomes; assay type: in vitro ADME; conditions: both sexes, pooled human liver microsomes, 0.5 mg/mL protein, 3 μM compound, pH 7.4, 37° C., NADPH, read-out: T ½ human liver microsomes
Experimental: Pooled human or rat liver microsomes (pooled male and female) were prepared and stored at −80° C. prior to use. […] The final incubation volume was 25 μL. A control incubation was included for each compound tested in which 0.1M phosphate buffer (pH 7.4) was added instead of NADPH (minus NADPH). Two control compounds were included with each species. All incubations were performed singularly for each test compound.
The reactions were stopped by the addition of 50 μL methanol containing internal standard at the appropriate time points. The incubation plates were centrifuged at 2,500 rpm for 20 mins at 4° C. to precipitate the protein.
Following protein precipitation, the sample supernatants were combined in cassettes of up to 4 compounds and analysed using Cyprotex generic LC-MS/MS conditions. […] The time point at which 30-50% of parent had degraded could then be investigated at 3 different levels of metabolite profiling and/or identification.
From a plot of ln peak area ratio (compound peak area/internal standard peak area) against time, the gradient of the line is determined. Subsequently, half-life and intrinsic clearance are calculated using the equations below: Elimination rate constant (k)=(−gradient)
[formula] [formula] • where V=Incubation volume (μL/mg microsomal protein).

[2] = system: STF/REN HEK293 cells; experiment: Wnt3a-induced ST-Luc/Renilla luciferase reporter assay in STF/REN HEK293 cells; assay type: cell-based; conditions: Homo sapiens, 24 hours compound in 50% Wnt3a conditioned media, average of multiple experiments
Experimental: HEK293 cells (80,000 cells per well) were seeded in 96-well plates coated with poly-L lysine. 24 hours after seeding, the cells were incubated for an additional 24 hours with various compound concentrations in 50% Wnt3a containing conditioned media (from L Wnt3a-expressing cells (ATCC)). A minimum of three replicates was used for each sample. After compound exposure, the cells were lysed and the firefly luciferase and Renilla activities were measured on a GloMax® 96 Microplate Luminometer with Dual Injectors (Promega).
XLfit (idbs) was used to determine the IC50 values in inhibition experiments. The data were fit to the following formula:
IC50: Langmuir Binding Isotherm: fit=((A+(B*x))+(((C−B)*(1−exp((−1*D)*x)))/D)) res=(y−fit)
All values shown are average values from multiple experiments.

[3] = system: DLD-1 cells; experiment: IncuCyte cell proliferation assay, DLD-1; assay type: cell-based; conditions: 0.1, 1, 5 μmol/L
Experimental: (§1) All cells were purchased from ATCC (American Type Culture Collection) and maintained according to the supplier's recommendations. Cells used were RKO, HCT-15, WiDr, HT29, DLD-1, COLO320DM and COLO205 cells. 1,000 cells were seeded in 96-well plates with the recommended media. […] All samples were assessed in a minimum of six replicates. Plates were incubated in an IncuCyte™ (Essen BioScience) inside a cell culture incubator. Images were captured every second hour to monitor cell proliferation. Mutations in the Adenomatouse Polyposis Coli (APC) gene, which occur in most colorectal cancers (CRC), lead to ineffective degradation of β-catenin and aberrant up-regulation of Wnt signaling. As a result, CRC cells may undergo cell cycle arrest as a result of antagonized canonical Wnt. Therefore, the kinetics of cell proliferation was monitored in selected Wnt responsive CRC cell lines by using an IncuCyte life tracking system.

[4] = biological target: T1, PARP1 (Homo sapiens, UniProt P09874); experiment: Chemiluminescent Assay Kit, PARP1; assay type: biochemical
T1 construct: purchased BPS Bioscience, Nordic Biosite 80551

[5] = system: AXIN2; experiment: Immunostaining of AXIN2 in SW480 cells; assay type: cell-based; conditions: 0.5 μmol/L, 18 hours, confocal microscopy
Experimental: (§2) After incubation, the cells were fixed in 4% PFA in PBS for 10 minutes. Immunostaining was performed as described in standard protocols. Primary antibodies used were β-catenin (610153, BD Transduction Laboratories™) or AXIN2 (76G6, Cell Signaling Technology). Secondary antibodies used were DyLight549 (555) donkey-anti-mouse and Cy2-donkey-anti-rabbit (both Jackson ImmunoResearch, 1:1000). The samples were imaged using a Zeiss Axiovert 200M Fluorescence/Live cell Imaging Microscope at 40 times magnification. A Zeiss LSM780 at 63 times magnification was used for confocal microscopy

[6] = system: WiDr cells; experiment: IncuCyte cell proliferation assay, WiDr; assay type: cell-based; conditions: 0.1, 1, 5 μmol/L
Experimental: as §1

[7] = system: HCT-15 cells; experiment: IncuCyte cell proliferation assay, HCT-15; assay type: cell-based; conditions: 0.1, 1, 5 μmol/L
Experimental: as §1

[8] = system: RKO cells; experiment: IncuCyte cell proliferation assay, RKO; assay type: cell-based; conditions: RKO (Wnt-independent control, wild type APC); 0.1, 1, 5 μmol/L
Experimental: as §1

[9] = system: HT29 cells; experiment: IncuCyte cell proliferation assay, HT29; assay type: cell-based; conditions: 0.1, 1, 5 μmol/L
Experimental: as §1

[10] = system: COLO205 cells; experiment: IncuCyte cell proliferation assay, COLO205; assay type: cell-based; conditions: 0.1, 1, 5 μmol/L
Experimental: as §1

[11] = system: COLO320DM cells; experiment: IncuCyte cell proliferation assay, COLO320DM; assay type: cell-based; conditions: 0.1, 1, 5 μmol/L
Experimental: as §1

[12] = system: β-catenin; experiment: Immunostaining of β-catenin in SW480 cells; assay type: cell-based; conditions: 500 nmol/L, 18 hours, immunofluorescence
Experimental: as §2

T1 sequence (P09874 whole entry): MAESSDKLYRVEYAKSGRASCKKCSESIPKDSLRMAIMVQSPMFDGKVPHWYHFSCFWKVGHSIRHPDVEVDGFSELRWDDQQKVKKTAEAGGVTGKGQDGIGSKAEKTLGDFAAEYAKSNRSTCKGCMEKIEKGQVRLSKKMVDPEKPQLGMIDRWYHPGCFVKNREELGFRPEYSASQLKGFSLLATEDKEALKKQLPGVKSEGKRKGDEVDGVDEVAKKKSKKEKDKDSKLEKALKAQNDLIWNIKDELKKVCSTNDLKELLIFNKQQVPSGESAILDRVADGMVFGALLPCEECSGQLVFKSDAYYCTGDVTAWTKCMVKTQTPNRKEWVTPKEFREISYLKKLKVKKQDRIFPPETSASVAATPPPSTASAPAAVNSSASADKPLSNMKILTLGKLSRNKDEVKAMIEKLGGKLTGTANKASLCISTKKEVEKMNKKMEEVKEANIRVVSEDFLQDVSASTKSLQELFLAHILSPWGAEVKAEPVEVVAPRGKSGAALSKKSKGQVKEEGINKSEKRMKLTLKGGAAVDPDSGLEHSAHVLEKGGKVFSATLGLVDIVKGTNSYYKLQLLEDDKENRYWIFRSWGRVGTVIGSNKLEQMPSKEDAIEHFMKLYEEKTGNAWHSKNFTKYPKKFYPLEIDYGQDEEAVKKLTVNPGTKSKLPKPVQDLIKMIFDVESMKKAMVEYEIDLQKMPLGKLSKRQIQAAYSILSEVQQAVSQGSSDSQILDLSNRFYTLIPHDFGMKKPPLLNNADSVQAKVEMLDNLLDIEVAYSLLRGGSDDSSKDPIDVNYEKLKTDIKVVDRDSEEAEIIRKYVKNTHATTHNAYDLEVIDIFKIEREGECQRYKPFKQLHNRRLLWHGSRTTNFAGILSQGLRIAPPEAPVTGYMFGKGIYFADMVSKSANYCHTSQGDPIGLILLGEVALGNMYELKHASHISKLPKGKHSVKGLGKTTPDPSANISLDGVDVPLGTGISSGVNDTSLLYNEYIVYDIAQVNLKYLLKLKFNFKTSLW

| SMILES | half-life at 3 μM [1] | IC50 [2] | other results |
| --- | --- | --- | --- |
| COc1cc(-c2nnc(/C=C/c3nnc(-c4ccc(F)cc4)n3-c3ccccc3Cl)o2)ccn1 [(6)] | 48 min | 1200 nM | – |
| COc1cc(C(=O)NNC(=O)/C=C/c2nnc(-c3ccc(F)cc3)n2-c2ccccc2Cl)ccn1 [(7)] | – | > 10000 nM | – |
| Oc1cc(-c2nnc(/C=C/c3nnc(-c4ccc(F)cc4)n3-c3ccccc3Cl)o2)ccn1 [(8)] | 128 min | 6300 nM | – |
| COc1cc(-c2nnc(/C=C/c3nnc(-c4ccc(Cl)cc4Cl)n3-c3ccccc3Cl)o2)ccn1 [Compound (1), 4-(5-((E)-2-(5-(2,4-dichlorophenyl)-4-(2-chlorophenyl)-4H-1,2,4-triazol-3-yl)vinyl)-1,3,4-oxadiazol-2-yl)-2-methoxypyridine] | 162 min | 940 nM | – |
| COc1cc(-c2nnc(/C=C/c3nnc(-c4ccc(S(C)(=O)=O)cc4)n3-c3ccccc3Cl)o2)ccn1 [Compound (2), 4-(5-((E)-2-(4-(2-chlorophenyl)-5-(4-(methylsulfonyl)phenyl)-4H-1,2,4-triazol-3-yl)vinyl)-1,3,4-oxadiazol-2-yl)-2-methoxypyridine] | 224 min | 280 nM | – |
| COc1cc(-c2nnc(/C=C/c3nnc(-c4ccncc4)n3-c3ccccc3Cl)o2)ccn1 [Compound (3), 4-(4-(2-chlorophenyl)-5-((E)-2-(5-(2-methoxypyridin-4-yl)-1,3,4-oxadiazol-2-yl)vinyl)-4H-1,2,4-triazol-3-yl)pyridine] | 37.6 min | 190 nM | – |
| COc1cc(-c2nnc(/C=C/c3nnc(-c4ccc(Cl)cn4)n3-c3ccccc3Cl)o2)ccn1 [Compound (4), 5-chloro-2-(4-(2-chlorophenyl)-5-((E)-2-(5-(2-methoxypyridin-4-yl)-1,3,4-oxadiazol-2-yl)vinyl)-4H-1,2,4-triazol-3-yl)pyridine] | 44.9 min | 240 nM | – |
| COc1cc(-c2nnc(/C=C/c3nnc(-c4nc(C)no4)n3-c3ccccc3Cl)o2)ccn1 [Compound (5), 4-(5-((E)-2-(4-(2-chlorophenyl)-5-(3-methyl-1,2,4-oxadiazol-5-yl)-4H-1,2,4-triazol-3-yl)vinyl)-1,3,4-oxadiazol-2-yl)-2-methoxypyridine] | 5.41 min | > 10000 nM | – |
| CS(=O)(=O)c1ccc(-c2nnc(/C=C/c3nnc(-c4ccc(C#N)cc4)o3)n2-c2ccccc2Cl)nc1 [Compound (10), (E)-4-(5-(2-(4-(2-chlorophenyl)-5-(5-(methylsulfonyl)pyridin-2-yl)-4H-1,2,4-triazol-3-yl)vinyl)-1,3,4-oxadiazol-2-yl)benzonitrile] | – | 50 nM | cell growth inhibition [3]: dose-dependent growth inhibition; inhibition of PARP1 ([4]; at doses up to 20 μmol/L): no inhibition; IC50 ([4]; in vitro, table, read-out: IC50 value, PARP): > 20 µM; levels of cytoplasmic AXIN2 [5]: significantly increased; cell growth inhibition [6]: dose-dependent growth inhibition; cell growth inhibition [7]: dose-dependent growth inhibition; cell growth inhibition [8]: did not; cell growth inhibition [9]: dose-dependent growth inhibition; cell growth inhibition [10]: dose-dependent growth inhibition; cell growth inhibition [11]: dose-dependent growth inhibition; nuclear β-catenin [12]: strong reduction; total β-catenin [12]: general reduction |
| COc1cc(-c2nnc(/C=C/c3nnc(-c4ccncn4)n3-c3ccccc3Cl)o2)ccn1 [Compound (11), 4-(4-(2-chlorophenyl)-5-((E)-2-(5-(2-methoxypyridin-4-yl)-1,3,4-oxadiazol-2-yl)vinyl)-4H-1,2,4-triazol-3-yl)pyrimidine] | 59.6 min | 80 nM | – |
| COc1cc(-c2nnc(/C=C/c3nnc(-c4ccc(S(C)(=O)=O)cn4)n3-c3ccccc3Cl)o2)ccn1 [Compound (12), 2-(4-(2-chlorophenyl)-5-((E)-2-(5-(2-methoxypyridin-4-yl)-1,3,4-oxadiazol-2-yl)vinyl)-4H-1,2,4-triazol-3-yl)-5-(methylsulfonyl)pyridine] | 37.1 min | 70 nM | – |
| CCOc1ccc(-c2nnc(/C=C/c3nnc(-c4ccnc(OC)c4)o3)n2-c2ccccc2Cl)nc1 [Compound (13), 2-(4-(2-chlorophenyl)-5-((E)-2-(5-(2-methoxypyridin-4-yl)-1,3,4-oxadiazol-2-yl)vinyl)-4H-1,2,4-triazol-3-yl)-5-ethoxypyridine] | 212 min | 110 nM | – |
| CS(=O)(=O)c1ccc(-c2nnc(/C=C/c3nnc(-c4ccc(Cl)cc4)o3)n2-c2ccccc2Cl)nc1 [Compound (14), 2-(4-(2-chlorophenyl)-5-((E)-2-(5-(4-chlorophenyl)-1,3,4-oxadiazol-2-yl)vinyl)-4H-1,2,4-triazol-3-yl)-5-(methylsulfonyl)pyridine] | 371 min | 40 nM | – |
| CS(=O)(=O)c1ccc(-c2nnc(C#Cc3nnc(-c4ccc(C#N)cc4)o3)n2-c2ccccc2Cl)nc1 [Compound (33), 4-{5-[4-(2-Chloro-phenyl)-5-(5-methanesulfonyl-pyridin-2-yl)-4H-[1,2,4]triazol-3-ylethynyl]-[1,3,4]oxadiazol-2-yl}-benzonitrile] | – | 3600 nM | – |
| CS(=O)(=O)c1ccc(-c2nnc(/C=C/c3nnc(-c4ccc(C#N)cc4)o3)n2-c2ccc(OC(F)(F)F)cc2Cl)nc1 [Compound (56)] | – | 390 nM | – |
| N#Cc1ccc(-c2nnc(/C=C/c3nnc(-c4ccc(OCC(F)(F)F)cn4)n3-c3ccccc3Cl)o2)cc1 [Compound (57), 4-[5-(2-{4-(2-Chloro-phenyl)-5-[5-(2,2,2-trifluoro-ethoxy)-pyridin-2-yl]-4H-[1,2,4]triazol-3-yl}-vinyl)-[1,3,4]oxadiazol-2-yl]-benzonitrile] | – | 100 nM | – |
| CS(=O)(=O)c1ccc(-c2nnc(/C(F)=C(\F)c3nnc(-c4ccc(C#N)cc4)o3)n2-c2ccccc2Cl)nc1 [Compound (58), 4-(5-{2-[4-(2-Chloro-phenyl)-5-(5-methanesulfonyl-pyridin-2-yl)-4H-[1,2,4]triazol-3-yl]-1,2-difluoro-vinyl}-[1,3,4]oxadiazol-2-yl)-benzonitrile] | – | > 10000 nM | – |
